biological target: T1, GST-PLK1 (Homo sapiens, UniProt P53350); experiment: Biochemical Characterization Assay: GST-PLK1 kinase HTRF assay with GST-p53 substrate; conditions: full-length GST-PLK1, GST-p53 and ATP, 37° C. for 35 minutes, HTRF signal
T1 construct: Full-length, active GST-PLK1 is purified from Sf9 insect cells; made in house; host or cells: Sf9 insect cells
Outline: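 Full-length GST-PLK1 from Sf9 cells (3 ug/mL stock) with full-length E. coli GST-p53 substrate in HEPES pH 7 buffer with MgCl2, TCEP, orthovanadate, BSA and Triton X-100; compound stocks 0.6 nM-4 mM in DMSO. Reaction 35 min at 37 °C, EDTA-stopped; phospho-p53 detected by HTRF (Eu anti-rabbit/APC anti-GST).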

T1 sequence (P53350 whole entry): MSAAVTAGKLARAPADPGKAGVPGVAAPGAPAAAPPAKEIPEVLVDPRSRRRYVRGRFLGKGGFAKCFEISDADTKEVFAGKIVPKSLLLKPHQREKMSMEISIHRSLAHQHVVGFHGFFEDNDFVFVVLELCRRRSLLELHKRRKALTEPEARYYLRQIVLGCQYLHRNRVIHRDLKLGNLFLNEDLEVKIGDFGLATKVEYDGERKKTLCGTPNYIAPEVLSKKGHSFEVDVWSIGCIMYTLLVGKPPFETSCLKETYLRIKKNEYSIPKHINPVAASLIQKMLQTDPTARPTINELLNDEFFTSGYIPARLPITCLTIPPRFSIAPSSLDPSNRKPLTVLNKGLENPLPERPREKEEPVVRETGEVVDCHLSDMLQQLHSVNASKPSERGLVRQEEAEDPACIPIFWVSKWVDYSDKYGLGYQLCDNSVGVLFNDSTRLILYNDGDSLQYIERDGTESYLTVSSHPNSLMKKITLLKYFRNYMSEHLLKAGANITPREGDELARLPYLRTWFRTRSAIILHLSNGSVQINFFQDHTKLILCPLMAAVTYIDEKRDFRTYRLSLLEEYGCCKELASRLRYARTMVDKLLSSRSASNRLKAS

Row | Compound | IC50
1 | COc1cc(C(=O)NC2CCN(C)CC2)ccc1Nc1ncc2c(n1)N(C1CCCC1)C(C)C(C)C(=O)N2C (racemic) [I-41, (rac)-4-(9-Cyclopentyl-5,7,8-trimethyl-6-oxo-6,7,8,9-tetrahydro-5H-pyrimido[4,5-b][1,4]diazepin-2-ylamino)-3-methoxy-N-(1-methyl-piperidin-4-yl)-benzamide] | < 500 nM
2 | CC1CN(C2CCCC2)c2nc(Nc3cccc(C(=O)NCCN(C)C)c3)ncc2N(C)C1=O (racemic) [I-93, (rac)-3-(9-Cyclopentyl-5,7-dimethyl-6-oxo-6,7,8,9-tetrahydro-5H-pyrimido[4,5-b][1,4]diazepin-2-ylamino)-N-(2-dimethylamino-ethyl)-benzamide] | 500 to 5000 nM
3 | COc1cc(C(=O)NC2CCOCC2)ccc1Nc1ncc2c(n1)N(C1CCCCC1)CCC(=O)N2 [I-33, 4-(9-Cyclohexyl-6-oxo-6,7,8,9-tetrahydro-5H-pyrimido[4,5-b][1,4]diazepin-2-ylamino)-3-methoxy-N-(tetrahydro-pyran-4-yl)-benzamide] | > 5000 nM
4 | CC1CN(C2CCCC2)c2nc(Nc3ccc(C(=O)NC4CCN(C)CC4)cc3)ncc2N(C)C1=O (racemic) [I-6, (rac)-4-(9-Cyclopentyl-5,7-dimethyl-6-oxo-6,7,8,9-tetrahydro-5H-pyrimido[4,5-b][1,4]diazepin-2-ylamino)-N-(1-methyl-piperidin-4-yl)-benzamide] | < 500 nM
5 | COc1cc(C(=O)NC2CCN(C)CC2)ccc1Nc1ncc2c(n1)N(C1CCCC1)C(C)CC(=O)N2C (racemic) [I-4, (rac)-4-(9-Cyclopentyl-5,8-dimethyl-6-oxo-6,7,8,9-tetrahydro-5H-pyrimido[4,5-b][1,4]diazepin-2-ylamino)-3-methoxy-N-(1-methyl-piperidin-4-yl)-benzamide] | < 500 nM
6 | COc1cc(C(=O)NC2CCN(Cc3ccccc3)CC2)ccc1Nc1ncc2c(n1)N(C1CCCC1)CC(C)C(=O)N2C (racemic) [I-9, (rac)-N-(1-Benzyl-piperidin-4-yl)-4-(9-cyclopentyl-5,7-dimethyl-6-oxo-6,7,8,9-tetrahydro-5H-pyrimido[4,5-b][1,4]diazepin-2-ylamino)-3-methoxy-benzamide] | < 500 nM
7 | COc1cc(C(=O)NC2CCN(C)CC2)ccc1Nc1ncc2c(n1)N1CCC[C@@H]1CC(=O)N2C [I-102, (3R)-3-methoxy-4-(6-methyl-5-oxo-2,3,3a,4,5,6-hexahydro-1H-6,8,10,10b-tetraaza-benzo[e]azulen-9-ylamino)-N-(1-methyl-piperidin-4-yl)-benzamide] | < 500 nM
8 | CCN1CCC(NC(=O)c2ccc(Nc3ncc4c(n3)N(C3CCCC3)CC(C)C(=O)N4C)cc2Cl)CC1 (racemic) [I-81, (rac)-2-Chloro-4-(9-cyclopentyl-5,7-dimethyl-6-oxo-6,7,8,9-tetrahydro-5H-pyrimido[4,5-b][1,4]diazepin-2-ylamino)-N-(1-ethyl-piperidin-4-yl)-benzamide] | 500 to 5000 nM
9 | COCCCNC(=O)c1cccc(Nc2ncc3c(n2)N(C2CCCC2)CC(C)C(=O)N3C)c1 (racemic) [I-90, (rac)-3-(9-Cyclopentyl-5,7-dimethyl-6-oxo-6,7,8,9-tetrahydro-5H-pyrimido[4,5-b][1,4]diazepin-2-ylamino)-N-(3-methoxy-propyl)-benzamide] | 500 to 5000 nM
10 | CCC1CN(C2CCCC2)c2nc(Nc3ccc(C(=O)NC4CCN(C)CC4)cc3OC)ncc2N(CC)C1=O (racemic) [I-15, (rac)-4-(9-Cyclopentyl-5,7-diethyl-6-oxo-6,7,8,9-tetrahydro-5H-pyrimido[4,5-b][1,4]diazepin-2-ylamino)-3-methoxy-N-(1-methyl-piperidin-4-yl)-benzamide] | 500 to 5000 nM

Further lines, results first:

Row | IC50 | Compound
11 | > 5000 nM | CC1CN(C2CCCC2)c2nc(Nc3ccc(C(=O)Nc4ccncc4)c(Cl)c3)ncc2N(C)C1=O (racemic) [I-86, (rac)-2-Chloro-4-(9-cyclopentyl-5,7-dimethyl-6-oxo-6,7,8,9-tetrahydro-5H-pyrimido[4,5-b][1,4]diazepin-2-ylamino)-N-pyridin-4-yl-benzamide]
12 | < 500 nM | COc1cc(C(=O)NC2CCN(C)CC2)ccc1Nc1ncc2c(n1)N(CC1CCCC1)CC(C)C(=O)N2C (racemic) [I-55, (rac)-4-(9-Cyclopentylmethyl-5,7-dimethyl-6-oxo-6,7,8,9-tetrahydro-5H-pyrimido[4,5-b][1,4]diazepin-2-ylamino)-3-methoxy-N-(1-methyl-piperidin-4-yl)-benzamide]
13 | < 500 nM | COc1cc(C(=O)NC2CCN(C)CC2)ccc1Nc1ncc2c(n1)N(C1CCCC1)C[C@@H](C)C(=O)N2C [I-2a, 7R-4-(9-Cyclopentyl-5,7-dimethyl-6-oxo-6,7,8,9-tetrahydro-5H-pyrimido[4,5-b][1,4]diazepin-2-ylamino)-3-methoxy-N-(1-methyl-piperidin-4-yl)-benzamide]
14 | < 500 nM | COc1cc(C(=O)NC2CCN(C)CC2)ccc1Nc1ncc2c(n1)N(C1CCCC1(C)C)CCC(=O)N2C (racemic) [I-59, (rac)-4-[9-(2,2-Dimethyl-cyclopentyl)-5-methyl-6-oxo-6,7,8,9-tetrahydro-5H-pyrimido[4,5-b][1,4]diazepin-2-ylamino]-3-methoxy-N-(1-methyl-piperidin-4-yl)-benzamide]
15 | 500 to 5000 nM | COc1cc(C(=O)NC2CCN(C)CC2)ccc1Nc1ncc2c(n1)N(C1CCCC1)CC(CCO)C(=O)N2C (racemic) [I-49, (rac)-4-[9-Cyclopentyl-7-(2-hydroxy-ethyl)-5-methyl-6-oxo-6,7,8,9-tetrahydro-5H-pyrimido[4,5-b][1,4]diazepin-2-ylamino]-3-methoxy-N-(1-methyl-piperidin-4-yl)-benzamide]
16 | 500 to 5000 nM | COCCN1CCC(=O)N(C)c2cnc(Nc3ccc(C(=O)NC4CCN(C)CC4)cc3OC)nc21 [I-40, 3-Methoxy-4-[9-(2-methoxy-ethyl)-5-methyl-6-oxo-6,7,8,9-tetrahydro-5H-pyrimido[4,5-b][1,4]diazepin-2-ylamino]-N-(1-methyl-piperidin-4-yl)-benzamide]

Source: patent US7517873B2, “Substituted pyrimidodiazepines” (Hoffman-La Roche Inc., priority 2007, dated 2009)
